From patent US20260265222A1, “1H-PYRROLE-2-AMIDE DERIVATIVE, PHARMACEUTICAL COMPOSITION AND METHOD FOR TREATING AND/OR PREVENTING YTHDC1-RELATED DISEASES” (priority 2023, published 2026)

Experiments:
leukaemia cell MOLM-13 [1] = assay: Differentiation detection by flow cytometry (PE-CD11b, APC-CD14); format: cell-based; conditions: MOLM-13, 0.5-2 μM, 5 days (FIG. 1c)
Experimental: To detect the effect of the small molecule YL-5092 on the differentiation of leukaemia cell MOLM-13, MOLM-13 cells were evenly seeded in 12-well plates and treated them with different concentration gradients of YL-5092 (0.5-2 μM) for 5 days. After collection, the cells were washed twice with ice-cold PBS, and 2 μL of PE-CD11b antibody and 2 μL of APC-CD14 antibody were added for incubation for 30 min, protected from light, then washed twice with ice-cold PBS, and finally analyzed on the flow cytometer.

[2] = system: leukaemia cells MOLM-13, MV4-11, THP-1, and U937; assay: Apoptosis detection by flow cytometry (APC-Annexin V, 7-AAD); format: cell-based; conditions: MOLM-13, MV4-11, THP-1, U937; 0.5-2 μM, 5 days (FIG. 1d)
Experimental: To detect the effect of the small molecule YL-5092 on the apoptosis of leukaemia cells MOLM-13, MV4-11, THP-1, and U937, MOLM-13, MV4-11, THP-1, and U937 cells were evenly seeded in 12-well plates and treated them with different concentration gradients of YL-5092 (0.5-2 μM) for 5 days. After collection, the cells were washed twice with ice-cold PBS, and 5 μL of APC-Annexin V antibody and 5 μL of 7-AAD were added for incubation for 15-30 min, protected from light, and finally analyzed on the flow cytometer.

leukaemia cell MOLM-13 [3] = assay: Cell cycle detection by flow cytometry (PI); format: cell-based; conditions: MOLM-13, 0.5-2 μM, 48 h (FIG. 1b)
Experimental: To detect the effect of the small molecule YL-5092 on the cell cycle of leukaemia cell MOLM-13, MOLM-13 cells were evenly seeded in 12-well plates and treated with different concentration gradients of YL-5092 (0.5-2 μM) for 48 h. After collection, the cells were washed once with ice-cold PBS and fixed with 70% ice-cold ethanol for 12 h. Before analysis on the flow cytometer, the cells were washed twice with ice-cold PBS and then incubated with PI reagent for 30 min, protected from light.

[4] = target: T1, GST-YTHDC1 (345-509) protein (Homo sapiens, UniProt Q96MU7); assay: Fluorescence polarization-based in vitro enzyme-level test against YTHDC1; format: binding; conditions: 30 nM GST-YTHDC1 (345-509), FAM-labeled m6A-modified single-stranded oligonucleotide, 18° C., 4 hours; read-out: IC50 (Inhibitory Activity against YTHDC1)
T1 construct: GST-YTHDC1 (345-509) protein

[5] = system: AML cells (MV4-11, HL-60, MOLM-13, THP-1, KG-1, U937, OCI-AML3); assay: Detection of cell proliferation by MTT assay; format: cell-based; conditions: 72 h, range over the cell lines (FIG. 1a), read-out: IC50 values, inhibition of proliferation of AML cells
Experimental: AML cells (MV4-11, HL-60, MOLM-13, THP-1, KG-1, U937, and OCI-AML3) were seeded in 96-well plates at 10,000-15,000 cells per well, and then a series of concentration gradients of YL-5092 (i.e., Compound 29) were added for culture for 72 h. 20 μL of MTT solution ([…]) was added to each well and incubated for 2-4 hours, followed by the addition of 50 μL of 20% SDS solution and incubation overnight to dissolve the formazan. The absorbance value was then read at 570 nm on a microplate reader, and the IC50 value of YL-5092 was calculated using GraphPad Prism 8.0.

**Q.** What does the source list for `O=C(Nc1ccc(-c2cncs2)cc1)c1cc(C(=O)c2ccccc2C(F)(F)F)c[nH]1` [Compound 29]?
**A.** AML cell differentiation (leukaemia cell MOLM-13 [1]): induce AML cell differentiation; AML cell apoptosis [2]: apoptosis; AML cell cycle arrest (leukaemia cell MOLM-13 [3]): significantly induce AML cell cycle arrest in the G0/G1 phase; IC50 [4]: 7 nM; IC50 [5]: 280 to 2870 nM

**Q.** How did the IC50 [4] turn out when `CC1(C)CN(c2ccccc2C(=O)c2c[nH]c(C(=O)Nc3ccc(-c4cnco4)cc3)c2)CCO1` [Compound 150] was run?
**A.** 84 nM

**Q.** `O=C(Nc1ccc(-c2cnco2)cc1)c1cc(C(=O)c2ccccc2N2CCC(c3ccccc3)C2)c[nH]1` (stereo not drawn) [Compound 151] was tested. Which IC50 [4] did it give?
**A.** 1560 nM

**Q.** With `O=C(Nc1ccc(-c2cnco2)cc1)c1cc(C(=O)c2ccccc2-c2ccccc2)c[nH]1` [Compound 152] as the compound, how does the IC50 [4] read?
**A.** 14 nM

**Q.** For `O=C(Nc1ccc(-c2cnco2)cc1)c1cc(C(=O)c2ccccc2N2CC(F)C2)c[nH]1` [Compound 153], which IC50 [4] is on record?
**A.** 14 nM
